Where two headings read alike, the source gives them in different places. Each block holds one molecule with its values, some of them ahead of it.
Experiments:
recombinant human IDO2 = biological target: T1, recombinant human IDO2 (Homo sapiens, UniProt Q6ZQW0); test: IDO2 UV absorbance assay (L-tryptophan, 321 nm); format: biochemical; details: for Absorbance (net) Repeat 1 / Absorbance (net) Repeat 2: Table 46
T1 construct: purchased 71194
T1 sequence (Q6ZQW0 1-407): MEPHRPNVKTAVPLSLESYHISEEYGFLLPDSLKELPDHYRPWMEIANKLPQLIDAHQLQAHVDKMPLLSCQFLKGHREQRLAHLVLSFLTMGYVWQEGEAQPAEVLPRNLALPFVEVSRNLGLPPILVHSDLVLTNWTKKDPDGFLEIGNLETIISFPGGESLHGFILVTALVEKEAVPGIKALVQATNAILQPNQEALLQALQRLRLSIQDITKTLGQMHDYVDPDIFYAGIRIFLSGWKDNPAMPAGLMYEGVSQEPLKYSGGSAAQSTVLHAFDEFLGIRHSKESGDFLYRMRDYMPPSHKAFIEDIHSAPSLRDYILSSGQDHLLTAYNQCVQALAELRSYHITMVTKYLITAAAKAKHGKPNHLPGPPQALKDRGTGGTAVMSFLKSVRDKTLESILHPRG

[1] = biological target: T2, recombinant human CD47 (hCD47) with human SIRP-α (Homo sapiens, UniProt Q08722); test: CD47/SIRP-α in vitro binding assay
T2 construct: purchased 71177 (hCD47, Fc fusion); 71138 (hSIRP-α, Biotin-labeled)
T2 sequence (Q08722 19-141 limits assumed): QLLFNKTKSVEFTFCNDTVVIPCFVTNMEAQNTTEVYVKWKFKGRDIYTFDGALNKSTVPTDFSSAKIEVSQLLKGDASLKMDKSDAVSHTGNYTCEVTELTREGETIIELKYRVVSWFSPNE
Description: Assay Conditions: CD47 was coated using 50 μL at 2 ng/μL at 4° C. overnight. After wash and block steps the test compounds were added to CD47-coated plate followed by addition of SIRP-α-biotin. Reaction was incubated for 2 h at room temperature. Binding was detected using HRP-conjugated Streptavidin.

human recombinant ARG2 = biological target: T3, human recombinant ARG2 (Homo sapiens, UniProt P78540); test: ARG2 enzymatic inhibition assay (thioarginine substrate, UV absorbance 412 nm); format: biochemical
T3 sequence (P78540 23-354): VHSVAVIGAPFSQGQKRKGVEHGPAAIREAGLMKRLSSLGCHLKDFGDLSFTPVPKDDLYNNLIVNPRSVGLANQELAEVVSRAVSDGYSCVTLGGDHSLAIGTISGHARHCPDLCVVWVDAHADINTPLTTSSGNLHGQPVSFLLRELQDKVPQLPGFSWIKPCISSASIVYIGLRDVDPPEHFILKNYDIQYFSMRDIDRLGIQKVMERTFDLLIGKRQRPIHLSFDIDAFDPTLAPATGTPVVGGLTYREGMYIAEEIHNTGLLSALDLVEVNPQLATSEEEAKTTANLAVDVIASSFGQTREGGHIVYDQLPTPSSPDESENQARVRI
Description: (§1) Assay conditions: The assay was performed using human recombinant ARG1 or ARG2 as enzymes and thioarginine as substrate. The UV absorbance at 412 nm was correlated with the amount of reaction product of ARG1/ARG2. […] 5 μl of 20× sample solutions were added to 90 μl of substrate, and reactions were started by the addition of 5 μl of 20× ARG1/ARG2 solutions. For the negative control (Blank), 5 μl of the assay buffer was added instead of the ARG1/ARG2. […] All reactions were conducted at room temperature and incubated for 30 minutes, ensuring that all wells, containing either samples or controls, contained 0.7% (v/v) EtOH final concentration to discard any solvent effect. UV absorbance readings were done at times 0 and 30 minutes to get net values. Absorbance was measured using a Tecan Infinite M1000 microplate reader.
(§2) Data Analysis: Experiment was performed in duplicate at each concentration. The data were analyzed using the software GraphPad Prism. In the absence of the compound, the net absorbance (At) in each data set was defined as 100% activity. In the absence of ARG1/ARG2, the net absorbance (Ab) in each data set was defined as 0% activity. The percent activity in the presence of each compound was calculated according to the following equation: % activity=[(A−Ab)/(At−Ab)]×100, where A=the absorbance in the presence of the compound.

human recombinant ARG1 = biological target: T4, human recombinant ARG1 (Homo sapiens, UniProt P05089); test: ARG1 enzymatic inhibition assay (thioarginine substrate, UV absorbance 412 nm); format: biochemical
T4 sequence (P05089 1-322): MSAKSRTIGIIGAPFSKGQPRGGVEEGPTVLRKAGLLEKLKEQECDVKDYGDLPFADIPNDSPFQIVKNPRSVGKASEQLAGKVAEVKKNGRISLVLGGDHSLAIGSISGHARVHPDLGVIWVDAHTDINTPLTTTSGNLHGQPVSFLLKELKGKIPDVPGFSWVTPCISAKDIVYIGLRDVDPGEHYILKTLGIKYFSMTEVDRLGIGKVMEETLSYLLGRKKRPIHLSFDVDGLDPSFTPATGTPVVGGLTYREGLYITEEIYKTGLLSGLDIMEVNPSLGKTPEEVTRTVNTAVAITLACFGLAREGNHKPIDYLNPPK
Description: as §1, §2

SIRT1 = biological target: T5, SIRT1 (Homo sapiens, UniProt Q96EB6); test: SIRT1 fluorogenic HDAC substrate activity assay; format: biochemical
T5 construct: purchased 50012
T5 sequence (Q96EB6 1-747): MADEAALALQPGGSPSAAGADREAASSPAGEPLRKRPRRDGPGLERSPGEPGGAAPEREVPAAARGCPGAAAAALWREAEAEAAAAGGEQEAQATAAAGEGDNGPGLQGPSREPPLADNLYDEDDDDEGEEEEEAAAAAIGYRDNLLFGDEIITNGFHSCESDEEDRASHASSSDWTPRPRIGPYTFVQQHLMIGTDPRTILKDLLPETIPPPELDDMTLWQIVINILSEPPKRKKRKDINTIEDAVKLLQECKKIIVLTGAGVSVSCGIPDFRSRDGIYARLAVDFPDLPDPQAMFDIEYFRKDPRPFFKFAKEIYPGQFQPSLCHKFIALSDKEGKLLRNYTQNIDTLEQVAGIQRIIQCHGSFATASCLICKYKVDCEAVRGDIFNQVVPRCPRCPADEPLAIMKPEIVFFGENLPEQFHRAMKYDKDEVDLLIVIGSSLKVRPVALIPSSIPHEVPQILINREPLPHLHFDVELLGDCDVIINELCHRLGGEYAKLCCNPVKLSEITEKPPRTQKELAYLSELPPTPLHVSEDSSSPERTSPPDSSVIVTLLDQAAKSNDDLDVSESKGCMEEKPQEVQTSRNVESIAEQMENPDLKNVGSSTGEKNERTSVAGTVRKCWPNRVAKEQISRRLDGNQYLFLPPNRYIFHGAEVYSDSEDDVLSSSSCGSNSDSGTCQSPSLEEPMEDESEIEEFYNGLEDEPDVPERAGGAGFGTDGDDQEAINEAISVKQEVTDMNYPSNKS
Description: Assay Conditions: The sample was dissolved in 70% EtOH. The serial dilution of the compound was first performed in 70% EtOH with the highest concentration at 1%.
The enzymatic reactions for the SIRT1 enzyme were conducted in duplicate at 37° C. for 30 minutes in a 50 μl mixture containing SIRT assay buffer, 5 μg BSA, an HDAC substrate (see 2.3.1), a SIRT enzyme, and a test compound. After enzymatic reactions, 50 μl of 2× SIRT Developer was added to each well for the SIRT enzymes and the plate was incubated at room temperature for an additional 15 minutes. Fluorescence intensity was measured at an excitation of 360 nm and an emission of 460 nm using a Tecan Infinite M1000 microplate reader.
Data Analysis: SIRT activity assays were performed in duplicates at each concentration. […] In the absence of the compound, the fluorescent intensity (Ft) in each data set was defined as 100% activity. In the absence of SIRT, the fluorescent intensity (Fb) in each data set was defined as 0% activity. The percent activity in the presence of each compound was calculated according to the following equation: % activity=(F−Fb)/(Ft−Fb), where F=the fluorescent intensity in the presence of the compound.

[2] = read-out: Activity (%) Repeat 1
[3] = read-out: Activity (%) Repeat 2
[4] = test concentration 0.001 μM, read-out: Activity (%) Rep. 1
[5] = test concentration 0.01 μM, read-out: Activity (%) Rep. 1
[6] = test concentration 0.1 μM, read-out: Activity (%) Rep. 1

inhibition at 0.01 µM (recombinant human IDO2): 0%
inhibition at 0.1 µM (recombinant human IDO2): 20%
inhibition at 1 µM (recombinant human IDO2): 60%
Absorbance (net) Repeat 1 (recombinant human IDO2; 0.01 μM): 0.17
Absorbance (net) Repeat 2 (recombinant human IDO2; 0.01 μM): 0.17
Absorbance (net) Repeat 1 (recombinant human IDO2; 0.1 μM): 0.14
Absorbance (net) Repeat 2 (recombinant human IDO2; 0.1 μM): 0.15
Absorbance (net) Repeat 1 (recombinant human IDO2; 1 μM): 0.10
Absorbance (net) Repeat 2 (recombinant human IDO2; 1 μM): 0.11
activity at 0.01 µM (recombinant human IDO2; [2]): 105%
activity at 0.1 µM (recombinant human IDO2; [2]): 75%
activity at 1 µM (recombinant human IDO2; [2]): 35%
activity at 0.01 µM (recombinant human IDO2; [3]): 105%
activity at 0.1 µM (recombinant human IDO2; [3]): 85%
activity at 1 µM (recombinant human IDO2; [3]): 45%
Molecule: NS(=O)(=O)NCCNc1nonc1C(=NO)Nc1ccc(F)c(Br)c1 [INCB024360]

Molecule: SIRP-α
Activity (%) Repeat 1 ([1]; 0.05 μM): 93%
Activity (%) Repeat 2 ([1]; 0.05 μM): 97%
Inhibition (%) ([1]; 0.05 μM): 5%
Luminescence Repeat 1 ([1]; 0.05 μM): 35347
Luminescence Repeat 2 ([1]; 0.05 μM): 36581
Activity (%) Repeat 1 ([1]; 0.5 μM): 52%
Activity (%) Repeat 2 ([1]; 0.5 μM): 51%
Inhibition (%) ([1]; 0.5 μM): 49%
Luminescence Repeat 1 ([1]; 0.5 μM): 19746
Luminescence Repeat 2 ([1]; 0.5 μM): 19259
Activity (%) Repeat 1 ([1]; 5 μM): 14%
Activity (%) Repeat 2 ([1]; 5 μM): 18%
Inhibition (%) ([1]; 5 μM): 84%
Luminescence Repeat 1 ([1]; 5 μM): 5310
Luminescence Repeat 2 ([1]; 5 μM): 6891

Net absorbance Rep. 1 (human recombinant ARG2; test concentration 0.001 μM): 0.78
Net absorbance Rep. 2 (human recombinant ARG2; test concentration 0.001 μM): 0.82
inhibition at 0.001 µM (human recombinant ARG2; test concentration 0.001 μM, read-out: ARG-2 Inhibition (%)): 17%
activity at 0.001 µM (human recombinant ARG2; [4]): 81%
activity at 0.001 µM (human recombinant ARG2; test concentration 0.001 μM, read-out: Activity (%) Rep. 2): 84%
Net absorbance Rep. 1 (human recombinant ARG2; test concentration 0.01 μM): 0.56
Net absorbance Rep. 2 (human recombinant ARG2; test concentration 0.01 μM): 0.60
inhibition at 0.01 µM (human recombinant ARG2; test concentration 0.01 μM, read-out: ARG-2 Inhibition (%)): 41%
activity at 0.01 µM (human recombinant ARG2; [5]): 57%
activity at 0.01 µM (human recombinant ARG2; test concentration 0.01 μM, read-out: Activity (%) Rep. 2): 62%
Net absorbance Rep. 1 (human recombinant ARG2; test concentration 0.1 μM): 0.19
Net absorbance Rep. 2 (human recombinant ARG2; test concentration 0.1 μM): 0.19
inhibition at 0.1 µM (human recombinant ARG2; test concentration 0.1 μM, read-out: ARG-2 Inhibition (%)): 81%
activity at 0.1 µM (human recombinant ARG2; [6]): 19%
activity at 0.1 µM (human recombinant ARG2; test concentration 0.1 μM, read-out: Activity (%) Rep. 2): 19%
Net absorbance Rep. 1 (human recombinant ARG1; test concentration 0.001 μM): 0.74
Net absorbance Rep. 2 (human recombinant ARG1; test concentration 0.001 μM): 0.77
inhibition at 0.001 µM (human recombinant ARG1; test concentration 0.001 μM, read-out: ARG-1 Inhibition (%)): 0%
activity at 0.001 µM (human recombinant ARG1; [4]): 99%
activity at 0.001 µM (human recombinant ARG1; test concentration 0.001 μM, read-out: Activity (%) Rep.2): 102%
Net absorbance Rep. 1 (human recombinant ARG1; test concentration 0.01 μM): 0.59
Net absorbance Rep. 2 (human recombinant ARG1; test concentration 0.01 μM): 0.59
inhibition at 0.01 µM (human recombinant ARG1; test concentration 0.01 μM, read-out: ARG-1 Inhibition (%)): 22%
activity at 0.01 µM (human recombinant ARG1; [5]): 79%
activity at 0.01 µM (human recombinant ARG1; test concentration 0.01 μM, read-out: Activity (%) Rep.2): 78%
Net absorbance Rep. 1 (human recombinant ARG1; test concentration 0.1 μM): 0.23
Net absorbance Rep. 2 (human recombinant ARG1; test concentration 0.1 μM): 0.24
inhibition at 0.1 µM (human recombinant ARG1; test concentration 0.1 μM, read-out: ARG-1 Inhibition (%)): 69%
activity at 0.1 µM (human recombinant ARG1; [6]): 31%
activity at 0.1 µM (human recombinant ARG1; test concentration 0.1 μM, read-out: Activity (%) Rep.2): 31%
Molecule: N=C(NO)NCC[C@H](N)C(=O)O [nor-NOHA]

Molecule: Cc1ccc(C(=O)Nc2ccc(S(=O)(=O)O)c3cc(S(=O)(=O)O)cc(S(=O)(=O)O)c23)cc1NC(=O)c1cccc(NC(=O)Nc2cccc(C(=O)Nc3cc(C(=O)Nc4ccc(S(=O)(=O)O)c5cc(S(=O)(=O)O)cc(S(=O)(=O)O)c45)ccc3C)c2)c1 [Suramin]
inhibition at 0.1 µM (SIRT1): 14%
inhibition at 1 µM (SIRT1): 74%
activity at 0.1 µM (SIRT1; read-out: % Activity Repeat 1): 85%
activity at 1 µM (SIRT1; read-out: % Activity Repeat 1): 26%
activity at 0.1 µM (SIRT1; read-out: % Activity Repeat 2): 86%
activity at 1 µM (SIRT1; read-out: % Activity Repeat 2): 26%
SIRT1 Activity (Fluorescence count) Repeat 1 (SIRT1; test concentration 0.01 μM): 2415
SIRT1 Activity (Fluorescence count) Repeat 2 (SIRT1; test concentration 0.01 μM): 2415
inhibition at 0.01 µM (SIRT1; test concentration 0.01 μM): 0%
activity at 0.01 µM (SIRT1; test concentration 0.01 μM, read-out: % Activity Repeat 1): 100%
activity at 0.01 µM (SIRT1; test concentration 0.01 μM, read-out: % Activity Repeat 2): 100%
SIRT1 Activity (Fluorescence count) Repeat 1 (SIRT1; test concentration 0.1 μM): 2074
SIRT1 Activity (Fluorescence count) Repeat 2 (SIRT1; test concentration 0.1 μM): 2082
SIRT1 Activity (Fluorescence count) Repeat 1 (SIRT1; test concentration 1 μM): 710
SIRT1 Activity (Fluorescence count) Repeat 2 (SIRT1; test concentration 1 μM): 702

From patent US11752188B2, “Compositions and methods for nutritional supplements” (DailyColors Health Inc., priority 2020, dated 2023)
